In patent US20210322508A1, “PEPTIDES AND COMPOSITIONS FOR TARGETED TREATMENT AND IMAGING” (SIGNABLOK, INC., priority 2018, published 2021):

What was measured:
[1] = in vivo; cited from earlier work
[2] = tolerability in healthy mice (body weight); type: in vivo; conditions: healthy C57BL/6 mice, average weights
Procedure: As described herein, healthy C57BL/6 mice were intraperitoneally (i.p.) administered daily for 7 consecutive days with GF9 at indicated doses Mouse body weight (BW) was measured daily.

[3] = Mouse tolerability studies; type: in vivo; conditions: female, C57BL/6, mouse, in vivo, ip, 400 mg/kg; free form, healthy mice
Procedure: Naïve, female C57BL/6 mice at 8 to 10 weeks of age (18 to 21 g) from the Jackson Laboratory were used. […] Clinical observations and body weights were made twice daily.
Naïve, female C57BL/6 mice at 8 to 10 weeks of age (18 to 21 g) from the Jackson Laboratory were used. Animals were randomly grouped (5 mice per group) and i.p. injected with 400 mg/kg G-HV21, G-KV21 or G-TE21. Clinical observations and body weights were made twice daily.

[4] = test system: LPS-stimulated J774A.1 macrophages (TNF-alpha, IL-6, IL-1beta); assay: In vitro cytokine release by LPS-stimulated macrophages; type: cell-based, mouse; conditions: 10 ng/ml after pre-incubation with HDL; LPS 1 μg/ml, 24 h
Procedure: (§1) The BALB/c murine macrophage cell line J774A.1 (ATCC TIB-67) were obtained from the American Type Culture Collection (ATCC, Manassas, Va.). Macrophages were cultured in 48-well plates (Corning, Cambridge, Mass.) for 24 h at 37° C. in the presence of LPS (1 μg/ml, Escherichia coli 055:B5, Sigma) in combination with 10 ng/ml peptides either pre-incubated or not with HDL. Cell-free supernatants were harvested and stored at −20° C. for later cytokine quantification. TNF-alpha, IL-6, and IL-1beta were assayed using commercial ELISA kits (Pierce Biotechnology, Thermo Scientific, Rockford, Ill.) according to the recommendations of the manufacturer. Results were represented as the mean±S.D. of three independent experiments. Statistical significances in in vitro macrophage uptake assay were determined by two-tailed Student's t test.
as §1, with “Macrophages were cultured in 48-well plates (Corning, Cambridge, Mass.) for 24 h at 37° C. in the presence of LPS (1 μg/ml, Escherichia coli 055:B5, Sigma) in combination with 10 ng/ml peptides either pre-incubated or not with HDL.” left out

[5] = test system: J774A.1 macrophages; assay: In vitro macrophage endocytosis of fluorescent peptides with or without HDL; type: cell-based, mouse; conditions: in the presence or absence of HDL
Procedure: The BALB/c murine macrophage cell line J774A.1 (ATCC TIB-67) were obtained from the American Type Culture Collection (ATCC, Manassas, Va.). The macrophage cells were cultured at 37° C. with 5% CO2 in Dulbecco's modified Eagle's medium (DMEM) (Cellgro, Mediatech Inc, Manassas, Va.) with 2 mM glutamine, 100 U/ml penicillin, 0.1 mg/ml streptomycin, and 10% fetal bovine serum (FBS) (Cellgro, Mediatech Inc, Manassas, Va.) and grown to approximately 90% of confluence in 6-well tissue culture plates (Corning, Tewksbury, Mass.). Cells were incubated for varied time periods from 4 to 24 h at 37° C. with fluorescently labeled peptides (pre-incubated with 1 mg/ml HDL) at a concentration of 4 μM rhodamine B (rho-B). After incubation, cells were washed twice with PBS and lysed using Promega passive lysis buffer (Promega, Madison, Wis.). The rho B fluorescence was measured in the lysates with a 540 nm excitation and a 590 nm emission filters using the Gemini EM fluorescence microplate reader (Molecular Devices, Sunnyvale, Calif.). The protein concentration in the lysates was determined using the Bradford reagent (Bio-Rad, Richmond, Calif.) and the SpectraMax 190 microplate reader (Molecular Devices, Sunnyvale, Calif.).
In one embodiment, after reaching target confluency, cells were incubated for 1 h in medium with or without fucoidan (400 μg/mL), BLT-1 (10 μM) or cytochalasin D (40 μM), Cells were subsequently incubated for 4 h and 22 h at 37° C. in medium containing 2 μM of rho B-labeled peptides G-KV21 and G-HV21 (as calculated for rho B) that were pre-incubated with 1 mg/ml HDL. After incubation, cells were washed twice with PBS and lysed using Promega passive lysis buffer. The rho B fluorescence and protein concentration were measured in the lysates as described above.

[6] = test system: mouse lipoproteins

Row | Compound | safety in humans [1] | toxicity in healthy mice [2] | MTD [3] | production of cytokines by LPS-stimulated macrophages [4] | macrophage endocytosis, effect of sulfoxidized methionine residue [5] | behaviour on ultracentrifugation of whole mouse serum [6]
1 | LQEEDAGEYGCM [LR12] | safe |  |  |  |  | 
2 | CC(C)C[C@H](NC(=O)[C@H](Cc1ccccc1)NC(=O)CN)C(=O)N[C@@H](CO)C(=O)N[C@@H](CCCCN)C(=O)N[C@@H](CO)C(=O)N[C@@H](CC(C)C)C(=O)N[C@H](C(=O)N[C@@H](Cc1ccccc1)C(=O)N[C@H](C(=O)N[C@@H](CCCCN)C(=O)N1CCC[C@H]1C(=O)N[C@@H](CCC(=O)O)C(=O)N[C@@H](CO)C(=O)N[C@@H](CCC(=O)O)C(=O)N[C@@H](CCCNC(=N)N)C(=O)N[C@@H](CC[S+](C)[O-])C(=O)N1CCC[C@H]1C(=O)N[C@@H](CS)C(=O)N[C@H](C(=O)N[C@@H](CCC(=O)O)C(=O)O)[C@@H](C)O)[C@@H](C)O)C(C)C (stereo partly drawn) [G-TE21, reference compound] |  | No toxicity was observed | ≥ 400 mg/kg | does not affect on cytokine release by LPS-stimulated macrophages | does not promote macrophage endocytosis neither in the presence or absence of HDL | sedimentate with serum proteins
